“Also recorded” adds a separate entry of the source.
T1: ALK2 with ALK5 (Homo sapiens, UniProt Q04771)
T1 construct: endogenous in cells; host or cells: HUVEC
T1 sequence (Q04771 21-509): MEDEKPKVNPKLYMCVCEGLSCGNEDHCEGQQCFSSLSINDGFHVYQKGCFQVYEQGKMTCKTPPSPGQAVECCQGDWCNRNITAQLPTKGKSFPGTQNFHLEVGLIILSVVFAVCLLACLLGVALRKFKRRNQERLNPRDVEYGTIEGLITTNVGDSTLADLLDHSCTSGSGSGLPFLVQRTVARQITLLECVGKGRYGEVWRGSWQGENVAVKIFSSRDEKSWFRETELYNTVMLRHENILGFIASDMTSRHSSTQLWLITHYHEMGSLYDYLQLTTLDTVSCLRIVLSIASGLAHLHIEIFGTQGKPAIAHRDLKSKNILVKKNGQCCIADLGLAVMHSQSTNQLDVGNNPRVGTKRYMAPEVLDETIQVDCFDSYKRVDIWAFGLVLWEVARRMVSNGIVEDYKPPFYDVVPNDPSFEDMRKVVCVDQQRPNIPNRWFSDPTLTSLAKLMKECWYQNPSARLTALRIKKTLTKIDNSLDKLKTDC


Tests used:
[1] = tested on: endothelial cells (HUVEC, HCMEC); assay: RNA interference: effect of ALK siRNA on TGF-β2- or BMP4-induced EndMT and multipotency; type: cell-based, human
Method: Cells were grown in StemPro osteogenic, chondrogenic, or adipogenic culture medium (Invitrogen). Alkaline phosphatase staining was performed using the alkaline phosphatase kit and protocol (Sigma-Aldrich) on cultures grown in osteogenic medium for 7 days to detect osteoblasts. Alizarin Red (Sigma-Aldrich) staining was performed for 30 minutes on cultures grown in osteogenic medium for 21 days to detect matrix calcification. Alcian Blue (Sigma) staining was used to stain chondrocyte proteoglycans for 5 minutes in cultures grown in chondrogenic medium for 14 days. Oil Red O (Sigma-Aldrich) staining was performed for 15 minutes on cultures grown in adipogenic medium for 7 days.
(§1) siRNA gene expression knockdown studies were performed using the TriFECTa RNAi kit (Integrated DNA Technologies) and corresponding protocol. Each 27 mer siRNA duplex was transfected into cells using X-tremeGene siRNA transfection reagent (Roche) following the manufacturer's guidelines. siRNA was synthesized (Integrated DNA Technologies) with the following sequences: ALK2: 5′-[…]-3′ (SEQ ID NO: 51); negative control: 5′-[…]-3′ (SEQ ID NO: 52).
Cells were grown in StemPro osteogenic, chondrogenic, or adipogenic culture medium (Invitrogen). Alkaline phosphatase staining was performed using the alkaline phosphatase kit and protocol (Sigma-Aldrich) on cultures grown in osteogenic medium for 7 d to detect osteoblasts. Alizarin Red (Sigma-Aldrich) staining was performed for 30 min on cultures grown in osteogenic medium for 21 d to detect matrix calcification. Alcian Blue (Sigma) staining was used to stain chondrocyte proteoglycans for 5 minutes in cultures grown in chondrogenic medium for 14 d. Oil Red O (Sigma-Aldrich) staining was performed for 15 min on cultures grown in adipogenic medium for 7 d. For in vivo analysis, endothelial cells were labeled with fluorescent quantum dots using the Qtracker 525 Cell Labeling Kit (Invitrogen). Cells were treated in culture to induce EndMT then absorbed into OPLA polylactic acid scaffolds (BD Biosciences). Scaffolds were surgically implanted subcutaneously into immunodeficient nude mice (Nu/Nu strain; Charles River Laboratories). Local injection of StemPro differentiation medium (described above) was performed in the area of the implants every 72 h for 6 weeks. Scaffolds were cryosectioned and stained with Alizarin Red, Alcian Blue, or Oil Red O as described above. All procedures were reviewed and approved by the Institutional Animal Care and Use Committee at Harvard Medical School.
(§2) siRNA gene expression knockdown studies were performed using the TriFECTa RNAi kit (Integrated DNA Technologies) and corresponding protocol. Each 27 mer siRNA duplex was transfected into cells using X-tremeGene siRNA transfection reagent (Roche) following the manufacturer's guidelines. siRNA was synthesized (Integrated DNA Technologies) with the following sequences: […]

ALK2 = assay: siRNA knockdown of ALK2 expression (immunoblotting); type: cell-based, human; conditions: transfected for 24 hours
Method: as §1, §2

HUVECs = assay: Assessment of EndMT inhibitors (immunoblotting); type: cell-based, human; conditions: dorsomorphin 5 μM, BMP7 10 ng ml−1, VEGF 25 ng ml−1; for TGF-β2-induced changes in CD31, FSP-1 and CD44 expression (immunoblots): HUVECs
Method: Human umbilical vein endothelial cells (HUVEC) and human cutaneous microvascular endothelial cells (HCMEC) isolated as previously described (35). Cells were tested for purity and found to express no markers for lymphatic endothelial cells or stromal cells (pericytes, smooth muscle cells, etc.) (36). This was reconfirmed by flow cytometry analysis (data not shown). Clonal populations were isolated with PYREX 8×8 mm cloning cylinders (Corning) and shown to respond in a manner identical to that of the cultures used for our experiments (FIG. 25B-D). Cells were grown in culture using EGM-2 medium (Cambrex), containing 10% FBS and 1% Penicillin/Streptomycin, followed by human endothelial serum free medium (Gibco) 24 h prior to all experimental conditions. Bone marrow derived mesenchymal stem cells (ScienCell Research Laboratories) were grown in mesenchymal stem cell medium (ScienCell Research Laboratories). Bone marrow derived hematopoietic stem cells (Lonza) were grown in HPGM medium (Lonza). Human corneal fibroblasts, from a stock provided by Dr. Elizabeth Hay (Harvard Medical School), were grown in RPMI medium, containing 10% FBS and 1% Penicillin/Streptomycin. Primary human osteoblasts, chondrocytes, and adipocytes and their respective growth media were obtained from Cell Applications, Inc. […] Recombinant VEGF (R&D Systems) was added to cultures at a concentration of 25 ng ml^-1. Dorsomorphin (Sigma-Aldrich) was added to cultures at a concentration of 5 μM. All experiments for this study were performed at minimum in triplicate. Immunoassays were performed using the following antibodies at concentrations (and using protocols) recommended by the respective manufacturers: […] Stressgen), phospho-Smad2 (3101), Smad2 (3122), phospho-Smad5 (9516), Smad5 (9517; […] Santa Cruz Biotechnology), osterix (ab22552), adiponectin (ab22554), N-cadherin (ab76057), NG2 (ab83508), vWF (ab68545; Abcam); CD31 (IR610; Dako), […]; GenScript); α-SMA ([…]), β-actin (A1978; Sigma-Aldrich). Samples were run with Criterion precast SDS-PAGE Gels (Bio-Rad). […] TrueBlot IgG beads (eBioscience) were used for immunoprecipitation experiments. AlexaFluor secondary antibodies (Invitrogen) were used at a dilution of 1:200. Images were acquired using a Nikon 80i fluorescence microscope.

EndMT = conditions: references 30, 31; cited from earlier work
ALK2 with ALK5 = target: T1, ALK2 with ALK5; assay: Interaction of ALK2 with ALK5: immunoprecipitation of ALK2, immunoblotting for ALK5; type: cell-based; conditions: 10 ng ml−1, 15 min
Method: Human umbilical vein endothelial cells (HUVEC) and human cutaneous microvascular endothelial cells (HCMEC) isolated as previously described (35). Cells were tested for purity and found to express no markers for lymphatic endothelial cells or stromal cells (pericytes, smooth muscle cells, etc.) (36). This was reconfirmed by flow cytometry analysis (data not shown). Clonal populations were isolated with PYREX 8×8 mm cloning cylinders (Corning) and shown to respond in a manner identical to that of the cultures used for our experiments (FIG. 25B-D). Cells were grown in culture using EGM-2 medium (Cambrex), containing 10% FBS and 1% Penicillin/Streptomycin, followed by human endothelial serum free medium (Gibco) 24 h prior to all experimental conditions. Bone marrow derived mesenchymal stem cells (ScienCell Research Laboratories) were grown in mesenchymal stem cell medium (ScienCell Research Laboratories). Bone marrow derived hematopoietic stem cells (Lonza) were grown in HPGM medium (Lonza). Human corneal fibroblasts, from a stock provided by Dr. Elizabeth Hay (Harvard Medical School), were grown in RPMI medium, containing 10% FBS and 1% Penicillin/Streptomycin. Primary human osteoblasts, chondrocytes, and adipocytes and their respective growth media were obtained from Cell Applications, Inc. […] Recombinant VEGF (R&D Systems) was added to cultures at a concentration of 25 ng ml^-1. Dorsomorphin (Sigma-Aldrich) was added to cultures at a concentration of 5 μM. All experiments for this study were performed at minimum in triplicate. Immunoassays were performed using the following antibodies at concentrations (and using protocols) recommended by the respective manufacturers: […] Stressgen), phospho-Smad2 (3101), Smad2 (3122), phospho-Smad5 (9516), Smad5 (9517; […] Santa Cruz Biotechnology), osterix (ab22552), adiponectin (ab22554), N-cadherin (ab76057), NG2 (ab83508), vWF (ab68545; Abcam); CD31 (IR610; Dako), […]; GenScript); α-SMA ([…]), β-actin (A1978; Sigma-Aldrich). […] Images were acquired using a Nikon 80i fluorescence microscope.

Smad2 and Smad5 = assay: Smad phosphorylation by immunoblotting; type: cell-based, human; conditions: HUVECs, 10 ng ml−1, 1 h
Method: Human umbilical vein endothelial cells (HUVEC) and human cutaneous microvascular endothelial cells (HCMEC) were provided by J. Bischoff (Children's Hospital Boston) and isolated as previously described^35. […] Cells were grown in culture using EGM-2 medium (Cambrex), containing 10% FBS and 1% Penicillin/Streptomycin, followed by human endothelial serum free medium (Gibco) 24 hours prior to all experimental conditions. Bone marrow derived mesenchymal stem cells (ScienCell Research Laboratories) were grown in mesenchymal stem cell medium (ScienCell Research Laboratories). Human corneal fibroblasts, from a stock initially provided by E. Hay (Harvard Medical School), were grown in RPMI medium, containing 10% FBS and 1% Penicillin/Streptomycin. Primary human osteoblasts, chondrocytes, and adipocytes and their respective growth media were obtained from Cell Applications Inc. Recombinant TGF-β2 and BMP4 proteins (R&D Systems) were added to the serum free culture medium for all relevant experiments at a concentration of 10 ng/mL. Cells were treated for 15 minutes to assess ALK2 phosphorylation, 1 hour to measure Smad5 phosphorylation, or 48 hours to induce EndMT. All experiments for this study were performed at minimum in triplicate.
Immunoassays were performed using the following antibodies at concentrations (and using protocols) recommended by the respective manufacturers: FSP-1 (H00006275-M01; Stressgen), ALK2 (sc-5671), Phospho-tyrosine (sc-7020), VE-cadherin (sc-6458), TIE2 (sc-324, sc-9026), STRO-1 (sc-47733), CD44 (sc-71220), CD90 (sc-9163), Osteocalcin (sc-74495, sc-23790), SOX9 (sc-20095), COL2A1 (sc-59958, sc-52658), PPARγ2 (sc-22022; Santa Cruz Biotechnology), vWF (ab68545; Abcam); His (A00174; GenScript); α-SMA (A5228), β-actin (A1978; Sigma-Aldrich). Samples were run with Criterion precast SDS-PAGE Gels (Bio-Rad). HRP-conjugated IgG TrueBlot reagents (18-8814, 18-8816, 18-8817; eBioscience) were used at a dilution of 1:1000. TrueBlot IgG beads (eBioscience) were used for immunoprecipitation experiments. Alexa Fluor secondary antibodies (Invitrogen) were used at a dilution of 1:200. Images were acquired using a Nikon 80i fluorescence microscope.
Human umbilical vein endothelial cells (HUVEC) and human cutaneous microvascular endothelial cells (HCMEC) isolated as previously described (35). […] Cells were grown in culture using EGM-2 medium (Cambrex), containing 10% FBS and 1% Penicillin/Streptomycin, followed by human endothelial serum free medium (Gibco) 24 h prior to all experimental conditions. Bone marrow derived mesenchymal stem cells (ScienCell Research Laboratories) were grown in mesenchymal stem cell medium (ScienCell Research Laboratories). Bone marrow derived hematopoietic stem cells (Lonza) were grown in HPGM medium (Lonza). Human corneal fibroblasts, from a stock provided by Dr. Elizabeth Hay (Harvard Medical School), were grown in RPMI medium, containing 10% FBS and 1% Penicillin/Streptomycin. Primary human osteoblasts, chondrocytes, and adipocytes and their respective growth media were obtained from Cell Applications, Inc. Recombinant TGF-β2, BMP4, and BMP7 proteins (R&D Systems) were added to the serum free culture medium for all relevant experiments at a concentration of 10 ng ml^−1. Recombinant VEGF (R&D Systems) was added to cultures at a concentration of 25 ng ml^−1. Dorsomorphin (Sigma-Aldrich) was added to cultures at a concentration of 5 μM.

[2] = siRNA 24 hours, then TGF-β2 or BMP4 48 hours
[3] = siRNA transfected, osteogenic medium 7 days

| ALK5 in ALK2 immunoprecipitates (ALK2 with ALK5) | Molecule | TGF-β2- or BMP4-induced decrease in VE-cadherin and increase in CD44 expression (ELISA) ([1]; HUVECs, ALK-specific siRNA) | TGF-β2- or BMP4-induced increases in FSP-1 and STRO-1 expression (immunoblotting) ([1]; siRNA 24 h, then TGF-β2 or BMP4 48 h) | TGF-β2- or BMP4-induced STRO-1 expression (immunoblotting) [1, 2] | TGF-β2- or BMP4-induced increase in FSP-1 expression (immunoblotting) [1, 2] | cells expressing FSP-1 after TGF-β2 or BMP4 (flow cytometry) [1, 2] | TGF-β2- or BMP4-induced increases in osteocalcin and osterix expression (real-time quantitative PCR) [1, 3] | alkaline phosphatase staining of TGF-β2 or BMP4 treated cultures [1, 3] | ALK2 expression (immunoblotting) (ALK2) | TGF-β2-induced changes in CD31, FSP-1 and CD44 expression (immunoblots) (HUVECs) | effect on EndMT (inhibitor) (HUVECs) | effect on EndMT (EndMT) | phosphorylation of Smad2 and Smad5 (immunoblotting) (Smad2 and Smad5) |
| --- | --- | --- | --- | --- | --- | --- | --- | --- | --- | --- | --- | --- | --- |
|  | ALK2 siRNA: 27 mer siRNA duplex 5'-GCAACACUGUCCAUUCUUCUUAACCAG-3′ (SEQ ID NO: 51/56) (chemistry not fully specified) | inhibited | blocked these increases | prevented TGF-β2- or BMP4-induced increases | completely blocked these increases | very few cells expressing FSP-1 | prevented these increases | no positive staining and none | complete inhibition |  |  |  |  |
|  | VEGF |  |  |  |  |  |  |  |  | inhibition of TGF-β2-induced decreases in CD31 and increases in FSP-1 and CD44 expression | inhibitors of EndMT | inhibit EndMT |  |
| No interaction of ALK2 and ALK5 | BMP7: Recombinant BMP7 protein (R&D Systems), ALK2 activating ligand that inhibits EndMT (protein) STGSKQRSQNRSKTPKNQEALRMANVAENSSSDQRQACKKHELYVSFRDLGWQDWIIAPEGYAAYYCEGECAFPLNSYMNATNHAIVQTLVHFINPETVPKPCCAPTQLNAISVLYFDDSSNVILKKYRNMVVRACGCH |  |  |  |  |  |  |  |  | inhibition of TGF-β2-induced decreases in CD31 and increases in FSP-1 and CD44 expression | inhibits EndMT; also recorded: inhibitors of EndMT |  | stimulated phosphorylation of only Smad5 |
